Assays:
Format in all cases: in vivo, human
[1] = tested on: graft versus leukemia effect (GVL); assay: Overall survival 200 days post-transplant in the same trial (Kaplan-Meier, Cox proportional hazards models)
Method: (§1) A randomized, prospective, double blind, placebo controlled, multi-center pivotal trial was conducted to evaluate beclomethasone dipropionate (BDP) as a treatment of cancer by enhancing the graft versus leukemia effect (GVL) while controlling graft versus host disease (GVHD) following hematopoietic stem cell transplant in blood-borne cancer patients. The trial was divided into two phases, the purpose was to monitor short term effectiveness of BDP to control graft versus host disease in the first phase and the second phase was to assess the effect of the drug treatment on long term survival due to recurrence of hematologic malignancy or other causes of death.
(§2) To minimize the exposure of patients to long term exposure to systemic corticosteroids (prednisone or prednisolone), which are used as the standard of care to prevent or treat symptoms of graft versus host disease in conjunction with other immunosuppressive drugs, patients were treated with an oral formulation of BDP. BDP was formulated as two separate oral dosage forms an immediate release (IR) tablet and an enteric coated (EC) tablet. 129 patients were enrolled and 67 patients were randomized to placebo and 62 to BDP, Patients were at least 10 days post allogeneic hematopoietic cell transplantation, had gastrointestinal symptoms consistent with Grade II GVHD, and had endoscopic evidence of GVHD. The diagnosis of GVHD was confirmed by biopsy of the intestine (esophagus, stomach, small intestine, or colon) or skin. After being diagnosed with GVHD, patients were started on standard prednisone therapy. Patients were administered 2 mg/kg/day or 1 mg/kg/day for 10 days as a starting dose. After 10 days at this initial dose, prednisone was tapered over 7 days, after which the patients were maintained on a maintenance physiologic replacement dose of prednisone of 0.0625 mg/kg/day or 0.125 mg/kg/day. Concurrently, patients received BDP at a dose of 2 mg four times daily, for a total dose of 8 mg, or placebo for a maximum of 50 days.
(§3) Safety was primarily assessed based on the following: 1) cumulative systemic corticosteroid exposure, 2) the incidence and degree of HPA axis suppression in patients who had not experienced treatment failure by study day 50, 3) rates of treatment-emergent adverse events, and 4) the overall survival rate 200 days post-transplant.
(§4) The primary analysis of the primary and secondary efficacy endpoints was based on the intent-to-treat principle. The analysis of the primary efficacy endpoint was based on the Kaplan-Meier method and log-rank test stratified by source of allograft. Hypothesis tests of the primary and secondary efficacy endpoints were performed using a two-sided significance level of 0.05. No adjustments were made to the significance level for inferential tests of the secondary efficacy endpoints. All patients who received at least one dose of BDP or placebo were included in the assessment of safety.
Based on a univariate time-dependent Cox proportional hazards model, the risk of mortality during this period was 68% lower following the initiation of treatment with BDP when compared to no treatment (hazard ratio 0.32; 95% CI: 0.12, 0.87; p=0.0252). A multivariate Cox model was used to evaluate the effect of BDP while simultaneously accounting for selected competing causes of mortality after hematopoietic cell transplant. The competing causes of mortality included the subject's age and gender, intensity of the conditioning regimen (myeloablative, non-myeloablative), primary diagnosis, transplant source (bone marrow, peripheral blood stem cells), and degree of HLA match, with greater benefit seen in the patients receiving non-myeloabaltive pre-conditioning.
The hazard ratio for each variable was estimated from a multivariate Cox proportional hazards model.

[2] = Safety assessment in the same trial; details: oral BDP 2 mg four times daily for 50 days plus prednisone induction vs placebo
Excerpt: as §3, §4

[3] = tested on: graft versus host disease (GVHD); assay: Randomized, double blind, placebo controlled trial of oral BDP: time to treatment failure (GVHD) through study days 50 and 80
Method: as §1, §2
Patients were monitored at clinic visits for evidence of increase in symptoms of GVHD (primary treatment failure). The primary efficacy endpoint was the time to treatment failure through study day 50. Treatment failure was defined as a worsening or recurrence of GVHD of such degree as to require an increase in immunosuppressive therapy. A subject was defined as a treatment failure if the patient required prednisone or equivalent IV corticosteroids at doses higher than that specified in the protocol, in response to uncontrolled signs or symptoms of GVHD; or required additional immunosuppressant medications other than those permitted by the protocol in response to uncontrolled signs or symptoms of GVHD. The time to treatment failure was calculated as the number of days elapsed between the randomization date and the date on which the subject was first identified as a treatment failure by the investigator.
Secondary efficacy endpoints included: 1) the time to treatment failure through study day 80, 2) the proportion of subjects who experienced treatment failure by study days 10, 30, 50, 60, and 80, and 3) Karnofsky performance status scores.
as §4
The hazard ratio was estimated from a univariate Cox proportional hazards model. Placebo serves as the reference group.

[4] = Kaplan-Meier estimate, fraction, all randomized subjects

SMILES: CCC(=O)OCC(=O)[C@@]1(OC(=O)CC)[C@@H](C)C[C@H]2[C@@H]3CCC4=CC(=O)C=C[C@]4(C)[C@@]3(Cl)[C@@H](O)C[C@@]21C [BDP, beclomethasone dipropionate]
- Relative reduction in mortality at 200 days post transplant ([1]; 200 days post transplant): 69%
- Deaths with relapse of the underlying malignancy as primary cause, number of patients ([1]; 200 days post-transplant): 2 patients
- Deaths with relapse of the underlying malignancy as primary cause, share of group ([1]; 200 days post-transplant): 3%
- Hazard ratio, mortality, univariate time-dependent Cox model ([1]; 200 days post-transplant, BDP vs no treatment): 0.32
- Overall survival rate 200 days post-transplant ([1]; Kaplan-Meier estimate, fraction): 0.91
- Coefficient (bi), multivariate proportional hazards model for overall survival 200 days post-transplant ([1]; safety population): −1.155
- HR [exp(bi)], duration of overall survival 200 days post-transplant, multivariate Cox model ([1]; safety population, adjusted for competing causes of mortality): 0.32
- Lowering of risk of mortality following initiation of BDP compared to no treatment ([1]; univariate time-dependent Cox proportional hazards model, 200 days post-transplant): 68%
- Clinically significant toxicity [2]: without an increase in clinically significant toxicity
- Reduction of risk of treatment failure relative to placebo, 50-day study treatment period ([3]; 50-day study treatment period): 37%
- Increase of median time to treatment failure compared to placebo ([3]; 80-day study period): more than 28 days
- Reduction of risk of treatment failure relative to placebo, entire 80-day study period ([3]; 80-day study period): 44%
- Treatment failure rate by Study Day 50 [3, 4]: 0.31
- Treatment failure rate by Study Day 80 [3, 4]: 0.39
- Median time to treatment failure (95% CI), through Study Day 50 ([3]; all randomized subjects): Not achieved
- Median time to treatment failure (95% CI), through Study Day 80 ([3]; all randomized subjects): Not achieved
- Patients who met the treatment failure endpoint during the first 10 days of study treatment ([3]; first 10 days, all patients on high-dose prednisone): Eight
- Number with treatment failure, through Study Day 50 ([3]; intent-to-treat, BDP N = 62, 2 mg four times daily oral, with prednisone induction and taper): 18
- Number with treatment failure, through Study Day 80 ([3]; intent-to-treat, BDP N = 62, includes 30-day post-treatment observation period): 22
- Share of the total number of treatment failures that occurred within the first 10 days of randomization ([3]; prior to the prednisone taper): 44%
- Cumulative treatment failure rate by study day 50 ([3]; study day 50): 31%
- Cumulative treatment failure rate by study day 80 ([3]; study day 80): 39%
